Two molecules from patent US10745719B2, “Enzymes and methods for dealkylation of substrates” (Alliance for Sustainable Energy, LLC, priority 2015, dated 2020) can be followed below.

One data set has as its system P. putida KT2440/pCJ021. Description: Growth on and metabolism of aromatic substrate by P. putida KT2440/pCJ021 (cytochrome P450 O-dealkylase and reductase) in M9 minimal medium. It counts as cell-based, Pseudomonas putida. An excerpt:
(§1) The genes encoding the cytochrome P450 protein and the co-transcribed reductase were amplified from Amycolatopsis sp. ATCC 39116 DNA using primers oCJ169 and oCJ170 (see Table 2) and the product assembled using Gibson Assembly Master Mix (New England BioLabs) into the broad host-range vector pBTL-2, which was amplified using primers oCJ160 and oCJ161, resulting in pCJ021. pBTL-2 (a gift from Ryan Gill; Addgene plasmid #22806) is a broad host-range vector that drives expression of inserted genes using the lac promoter, which is constitutively expressed in Pseudomonas putida KT2440. The cytochrome P450 gene alone was also amplified using oCJ169 and oCJ206 and assembled it into the same vector (resulting in pCJ024). pCJ021 was then transformed into P. putida KT2440 to generate P. putida KT2440/pCJ021.
HPLC analysis was performed by injecting 6 μL of 0.2 μm filtered culture supernatant onto an Agilent 1100 series system equipped with a Phenomenex Rezex RFQ-Fast Acid H+ (8%) column and a cation H+ guard cartridge (Bio-Rad Laboratories) at 85° C. run using a mobile phase of 0.01 N sulfuric acid at a flow rate of 1.0 mL/min and a diode array detector to measure absorbance at 210 nm. Analytes were identified by comparing retention times and spectral profiles with pure standards. HPLC chromatograms show milli-absorbance units (mAU) on the Y axis and retention time (minutes) on the X axis.
(§2) P. putida KT2440 can readily metabolize catechol for growth, so a functional enzyme with O-dealkylase activity would convert guaiacol or guaethol to catechol and enable this organism to metabolize guaiacol or guaethol for growth, which it is not natively capable of.
HPLC analyses show the disappearance of guaiacol in a culture of P. putida KT2440/pCJ021 grown on M9 minimal medium containing guaiacol and the lack of guaiacol catabolism by native P. putida KT2440 (FIG. 6).

In data set [1] the test system is P. putida KT2440 transformed with pCJ024. Description: Metabolism of guaiacol by P. putida KT2440 transformed with pCJ024 (cytochrome P450 gene alone). The conditions noted are these: M9 minimal medium, 5 mM guaiacol. It counts as cell-based, Pseudomonas putida.
Source text: as §1, §2

Where [2] appears, read: 5 mM guaiacol as sole source of carbon and energy.

Turning to `CCOc1ccccc1O` [guaethol, 2-ethoxyphenol], in the data set with P. putida KT2440/pCJ021 (5 mM guaethol as sole source of carbon and energy, 72 hours), the metabolism of substrate result is “able to metabolize the guaethol”. In the data set with P. putida KT2440/pCJ021 (5 mM guaethol, growth on the catechol produced), this molecule registered an OD600 reached of 7.
Turning to `COc1ccccc1O` [guaiacol, 2-methoxyphenol], the OD600 reached entry in the data set with P. putida KT2440/pCJ021 (setting [2]) is listed as “over 0.5”. In addition, the metabolism of substrate entry was “metabolizing the guaiacol completely” in the data set with P. putida KT2440/pCJ021 (setting [2]) and “neither of these strains was able to metabolize guaiacol” in data set [1].
